The results in this text go back to patent US20040023803A1, “Method for producing a solid herbicide formulation” (priority 2000, published 2004).

Molecules are shown by their SMILES.

The nature of this data set: Storage stability test of solid formulations (14 days at 54° C., CIPAC MT 46; active ingredient and AMTT content by quantitative HPLC). Particulars: for Storage 14 days, 54° C. active ingredient content (rel.): relative to zero value; for Preparation Concentration % by weight: zero value before storage. The class given is physicochemical. As for the experimental part: The solid formulations prepared by the process according to the invention are storage-stable. In accordance with a storage test laid down by the authorization authorities, they are stored for 14 days at 54° C. […] The active ingredient content and the AMTT content of the formulations were each determined by means of quantitative HPLC. […] The samples were then analyzed and compared with the comparative value at the beginning of the storage (zero value). The active ingredient content is shown in each case as relative quantity based on the zero value (as a percentage). The storage experiments were carried out following the method CIPAC MT 46. The shelf life of a product is estimated by short-term storage at elevated temperature.

The mark [1] stands for this setting: Table 3 (headed Example 3), tritosulfuron + flucarbazone-sodium formulation, pH of the suspension 6.5.
Setting [2] is: Table 3 (headed Example 3), tritosulfuron + flucarbazone-sodium formulation, pH of the suspension 7.0.
Where [3] appears, read: Table 2, Example 1 formulation, pH of the suspension 5.1.
The mark [4] stands for this setting: Table 2, Example 1 formulation, pH of the suspension 6.
Where [5] appears, read: Table 2, Example 1 formulation, pH of the suspension 7.
The mark [6] stands for this setting: Table 2, Example 1 formulation, pH of the suspension 8.
[7] abbreviates: Table 2, Example 1 formulation, pH of the suspension 9.
Where [8] appears, read: Table 4 (headed Example 4), tritosulfuron + dicamba formulation, pH of the suspension 6.
Where [9] appears, read: Table 4 (headed Example 4), tritosulfuron + dicamba formulation, pH of the suspension 7.
Setting [10] is: Table 4 (headed Example 4), tritosulfuron + dicamba formulation, pH of the suspension 8.
[11] abbreviates: Table 4 (headed Example 4), tritosulfuron + dicamba formulation, pH of the suspension 9.

On to `COc1nn(C(=O)[N-]S(=O)(=O)c2ccccc2OC(F)(F)F)c(=O)n1C.[Na+]` [flucarbazone-sodium], for which, under setting [1], the “Storage 14 days, 54° C. active ingredient content (rel.)” value (shortened to “Storage 14 days … (rel.)”) is on record as 98.8 (rel.) % (rel.) and the “Preparation Concentration % by weight” value is reported as 24.1 % by weight. Also, under setting [2], the “Storage 14 days … (rel.)” value is 99.5 (rel.) % (rel.) and the “Preparation Concentration % by weight” value worked out at 24.3 % by weight.

Regarding `COc1nc(N)nc(C(F)(F)F)n1` [AMTT, 2-amino-4-methoxy-6-trifluoromethyltriazine], the “Storage 14 days, 54° C. % by weight (AMTT content)” value by setting is: under setting [3], 0.249 % by weight; under setting [4], 0.250 % by weight; under setting [5], 0.178 % by weight; under setting [6], 0.056 % by weight; under setting [7], 0.234 % by weight; under setting [1], 0.164 % by weight. The “Storage 14 days, 54° C. % by weight (AMTT content)” value was determined as 0.065 % by weight under setting [2]; 0.470 % by weight under setting [8]; 0.011 % by weight under setting [9]; 0.007 % by weight under setting [10]; 0.007 % by weight under setting [11]. Also, the “Preparation Concentration % by weight” value by setting is: under setting [3], 0.03 % by weight; under setting [4], 0.03 % by weight; under setting [5], 0.033 % by weight; under setting [6], 0.026 % by weight; under setting [7], 0.035 % by weight; under setting [1], 0.025 % by weight. For the same compound, the “Preparation Concentration % by weight” value runs as follows: under setting [2], 0.019 % by weight; under setting [8], 0.009 % by weight; under setting [9], 0.007 % by weight; under setting [10], 0.007 % by weight; under setting [11], 0.006 % by weight.

Regarding `COc1nc(NC(=O)NS(=O)(=O)c2ccccc2C(F)(F)F)nc(C(F)(F)F)n1` [tritosulfuron, N[[[4-methoxy-6-(trifluoromethyl)-1,3,5-triazin-2-yl]amino]carbonyl]-2-(trifluoromethyl)benzenesulfonamide], the “Storage 14 days … (rel.)” value under setting [3] is on record as 99.3 (rel.) % (rel.); the “Storage 14 days … (rel.)” value under setting [4] is 99.9 (rel.) % (rel.); the “Storage 14 days … (rel.)” value under setting [5] is on record as 100.8 (rel.) % (rel.); the “Storage 14 days … (rel.)” value under setting [6] is 100.5 (rel.) % (rel.); the “Storage 14 days … (rel.)” value under setting [7] is 97.7 (rel.) % (rel.); the “Storage 14 days … (rel.)” value under setting [1] is on record as 98.8 (rel.) % (rel.). The “Storage 14 days … (rel.)” value reads like this: under setting [2], 100 (rel.) % (rel.); under setting [8], 91.3 (rel.) % (rel.); under setting [9], 99.7 (rel.) % (rel.); under setting [10], 98.8 (rel.) % (rel.); under setting [11], 102.6 (rel.) % (rel.). Further, the “Preparation Concentration % by weight” value is, setting by setting: under setting [3], 74.2 % by weight; under setting [4], 72.3 % by weight; under setting [5], 71.7 % by weight; under setting [6], 67.5 % by weight; under setting [7], 72.4 % by weight; under setting [1], 40.5 % by weight. Moreover, the “Preparation Concentration % by weight” value was 41.1 % by weight under setting [2]; 11.9 % by weight under setting [8]; 11.9 % by weight under setting [9]; 11.3 % by weight under setting [10]; 10.4 % by weight under setting [11].

As for `COc1c(Cl)ccc(Cl)c1C(=O)O` [dicamba], the “Storage 14 days … (rel.)” value reads like this: under setting [8], 100 (rel.) % (rel.); under setting [9], 100 (rel.) % (rel.); under setting [10], 100 (rel.) % (rel.); under setting [11], 101.9 (rel.) % (rel.). The “Preparation Concentration % by weight” value was 60.4 % by weight under setting [8], 58.7 % by weight under setting [9], 58.5 % by weight under setting [10] and 58.0 % by weight under setting [11].
